Experimental data published in patent publication US20240368104A1, “Novel Dialkoxynaphtho[2,3-C]Furan-1(3H)-One Derivatives and Pharmaceutical Composition For Preventing or Treating Respiratory Disease or SARS-COV-2 Infection Disease, Comprising Same” (priority 2021, published 2024).
Read-outs that look alike come from different tables or passages of the source.

Key:
[1] = test system: SARS-COV-2; experiment: microbe, parasite or virus in culture; assay type: cell-based; design: SI (Selectivity Index, CC50/IC50): unit not given here; settings: for SI (Selectivity Index, CC50/IC50): SARS-COV-2, values >50 assumed to be 50; for IC50: read-out: SARS-COV-2 inhibition (IC50)
[2] = in vitro; settings: African green monkey
[3] = Severe acute respiratory syndrome coronavirus 2, Vero cells, 24 hours infection
[4] = Severe acute respiratory syndrome coronavirus 2, Vero, 24 h

SMILES | SI (Selectivity Index, CC50/IC50) [1] | IC50 [1, 3] | CC50 [2] | IC50 [1, 4]
COc1cc2cc3c(c(-c4ccc(N5C(=O)OC[C@@H]5Cc5ccccc5)nc4)c2cc1OC)C(=O)OC3 [Example 211, (S)-4-benzyl-3-(5-(6,7-dimethoxy-3-oxo-1,3-dihydronaphtho[2,3-c]furan-4-yl)pyridin-2-yl) oxazolidin-2-one] | 12.50 | 4 µM | > 50 µM | 
COc1cc2cc3c(c(-c4ccc(N5CCc6sccc6C5)nc4)c2cc1OC)C(=O)OC3 [Example 156, 9-(6-(6,7-dihydrothien[3,2-c]pyridin-5 (4H)-yl)pyridin-3-yl)-6,7-dimethoxynaphtho[2,3-c]furan-1(3H)-one] | 48.93 | 1.02 µM | > 50 µM | 
COc1cc2cc3c(c(-c4cnc(N5CCC[C@@H]5CN5CCCC5)nc4)c2cc1OC)C(=O)OC3 [Example 110, (R)-6,7-dimethoxy-9-(2-(2-(pyrrolidin-1-ylmethyl)pyrrolidin-1-yl)pyrimidin-5-yl)naphtho[2,3-c]furan-1(3H)-one] | 5.78 | 8.66 µM | > 50 µM | 
COc1cc2c(OC)c3c(c(-c4ccc(-n5cc(C#N)c(N(C)C)n5)nc4)c2cc1OC)COC3=O [Example 264, 3-(dimethylamino)-1-(5-(6,7,9-trimethoxy-1-oxo-1,3-dihydronaphtho[2,3-c]furan-4-yl)pyridin-2-yl)-1H-pyrazol-4-carbonitrile] | 1.00 | > 50 µM | > 50 µM | 
COCCN(C)c1ccc(-c2c3c(c(OC)c4cc(OC)c(OC)cc24)C(=O)OC3)cn1.Cl [Example 265, 6,7,9-trimethoxy-4-(6-((2-methoxyethyl)(methyl)amino)pyridin-3-yl)naphtho[2,3-c]furan-1(3H)-one] | 1.51 |  | > 50 µM | 33 µM
COc1cc2cc3c(c(-c4cc5c(cc4OP(=O)(NC(C)C)Oc4ccccc4)OCO5)c2cc1OC)C(=O)OC3 (stereo not drawn) [Example 278, 6-(6,7-dimethoxy-3-oxo-1,3-dihydronaphtho[2,3-c]furan-4-yl)benzo[d][1,3]dioxol-5-yl phenyl isopropylphosphoramidate] | 1.00 |  | > 50 µM | > 50 µM
CCNc1cccc(-c2c3c(cc4cc(OC)c(OC)cc24)COC3=O)c1 [Example 258, 9-(3-(ethylamino)phenyl)-6,7-dimethoxynaphtho[2,3-c]furan-1(3H)-one] | 3.04 | 16.5 µM | > 50 µM | 
CCN(C)c1ccc(-c2c3c(cc4cc(OC)c(OC)cc24)COC3=O)cn1 [Example 178, 9-(6-(ethyl(methyl)amino)pyridin-3-yl)-6,7-dimethoxynaphtho[2,3-c]furan-1(3H)-one] | 1323.43 | 0.04 µM | > 50 µM | 
CNc1ncc(-c2c3c(cc4cc(OC)c(OC)cc24)COC3=O)cn1 [Example 108, 6,7-dimethoxy-9-(2-(methylamino)pyrimidin-5-yl)naphtho[2,3-c]furan-1(3H)-one] | 18.03 | 2.77 µM | > 50 µM | 
COc1cc2cc3c(c(-c4ccc5cccnc5c4)c2cc1OC)C(=O)OC3 [Example 118, 6,7-dimethoxy-9-(quinolin-7-yl)naphtho[2,3-c]furan-1(3H)-one] | 257.92 | 0.19 µM | > 50 µM | 
COc1cc2cc3c(c(-c4ccc(N5CCCCC5)cc4)c2cc1OC)C(=O)OC3 [Example 242, 6,7-dimethoxy-9-(4-(piperidin-1-yl)phenyl)naphtho[2,3-c]furan-1(3H)-one] | 5.45 | 1.94 µM | 10.6 µM | 
COc1cc2c(OC)c3c(c(-c4ccc5c(c4)OCO5)c2cc1OC)COC3=O [Example 262, 4-(benzo[d][1,3]dioxol-5-yl)-6,7,9-trimethoxynaphtho[2,3-c]furan-1(3H)-one] | 5.40 |  | > 50 µM | 9.26 µM
COc1cc2cc3c(c(-c4cc5c(cc4OC(=O)c4ccncc4)OCO5)c2cc1OC)C(=O)OC3 [Example 271, 6-(6,7-dimethoxy-3-oxo-1,3-dihydronaphtho[2,3-c]furan-4-yl)benzo[d][1,3]dioxol-5-yl isonicoinate] | 34.41 | 1.45 µM | > 50 µM | 
COc1cc2cc3c(c(-c4cc5c(cc4OC(=O)C(C)C)OCO5)c2cc1OC)C(=O)OC3 [Example 275, 6-(6,7-dimethoxy-3-oxo-1,3-dihydronaphtho[2,3-c]furan-4-yl)benzo[d][1,3]dioxol-5-yl isobutrate] | 1.76 | 28.4 µM | > 50 µM | 
COc1cc2cc3c(c(-c4ccc(N5CC(C)CC(C)C5)nc4)c2cc1OC)C(=O)OC3 (stereo not drawn) [Example 127, 9-(6-(3,5-dimethylpiperidin-1-yl)pyridin-3-yl)-6,7-dimethoxynaphtho[2,3-c]furan-1(3H)-one] | 45.29 | 1.1 µM | > 50 µM | 
COc1cc2cc3c(c(N4CCN(CCN5CCOCC5)CC4)c2cc1OC)C(=O)OC3 [Example 143, 6,7-dimethoxy-9-(4-(2-morpholinoethyl)piperazin-1-yl)naphtho[2,3-c]furan-1(3H)-one] | 1.0 | > 50 µM | > 50 µM | 
COc1cc2cc3c(c(-c4cnc(N[C@@H](C)c5ccc(F)cc5)nc4)c2cc1OC)C(=O)OC3 [Example 55, (S)-9-(2-((1-(4-fluorophenyl)ethyl)amino)pyrimidin-5-yl)-6,7-dimethoxynaphtho[2,3-c]furan-1(3H)-one] | 4.23 | 11.8 µM | > 50 µM | 
COc1cc2cc3c(c(-c4ccc5c(O)cc(C)nc5c4C)c2cc1OC)C(=O)OC3 [Example 146, 9-(4-hydroxy-2,8-dimethylquinolin-7-yl)-6,7-dimethoxynaphtho[2,3-c]furan-1(3H)-one] | 1.0 | > 50 µM | > 50 µM | 
COc1cc2cc3c(c(-c4cc5c(cc4OP(=O)(NCCN4CCOCC4)c4ccccc4)OCO5)c2cc1OC)C(=O)OC3 (stereo not drawn) [Example 280, 6-(6,7-dimethoxy-3-oxo-1,3-dihydronaphtho[2,3-c]furan-4-yl)benzo[d][1,3]dioxol-5-yl N-(2-morpholinoethyl)-P-phenylphosphoramidate] | 25.56 |  | > 50 µM | 1.96 µM
COc1cc2cc3c(c(N4CCc5sccc5C4)c2cc1OC)C(=O)OC3 [Example 3, 9-(6,7-dihydrothieno[3,2-c]pyridin-5 (4H)-yl)-6,7-dimethoxynaphtho[2,3-c]furan-1(3H)-one] | 8.48 | 5.89 µM | > 50 µM | 
COc1cc2cc3c(c(-c4ccc(N(C)CCC5OCCO5)nc4)c2cc1OC)C(=O)OC3 [Example 161, 9-(6-((2-(1,3-dioxolan-2-yl)ethyl)(methyl)amino)pyridin-3-yl)-6,7-dimethoxynaphtho[2,3-c]furan-1(3H)-one] | 7.74 | 6.46 µM | > 50 µM | 
COc1cc2cc3c(c(-c4cnc(N5CCC[C@H]5C(N)=O)nc4)c2cc1OC)C(=O)OC3 [Example 49, (S)-1-(5-(6,7-dimethoxy-3-oxo-1,3-dihydronaphtho[2,3-c]furan-4-yl)pyrimidin-2-yl) pyrrolidin-2-carboxamide] | 1.00 | > 50 µM | > 50 µM | 
